Source: patent publication US7854753B2, “Photokinetic delivery of biologically active substances using pulsed incoherent light” (Photokinetix, Inc., priority 2002, dated 2010)
Each block holds one compound with its values, some of them ahead of it.

Assay: Franz skin diffusion cell permeation (percutaneous absorption) under ambient, natural or pulsed incoherent LED light
Conditions: for Ctrl: ambient light only; for Ctrl-TiO2: ambient light, 2% TiO2
[1] = 350 + TiO2, 24 cps vs Dark-TiO2
[2] = 350 + TiO2, 80 cps vs Dark-TiO2
[3] = 390 + TiO2, 24 cps vs Dark-TiO2
[4] = 390 + TiO2, 80 cps vs Dark-TiO2
[5] = 405 + TiO2, 24 cps vs Dark-TiO2
[6] = 405 + TiO2, 80 cps vs Dark-TiO2
[7] = 450 + TiO2, 24 cps vs Dark-TiO2
[8] = 450 + TiO2, 80 cps vs Dark-TiO2
[9] = Dark-TiO2 control (2% TiO2), 24 cps series
[10] = Dark-TiO2 control (2% TiO2), 80 cps series
[11] = Day (natural daylight, not pulsed), control of the 24 cps series
[12] = Day (natural daylight, not pulsed), control of the 80 cps series
[13] = Day-TiO2 (natural daylight, 2% TiO2, not pulsed), control of the 24 cps series
[14] = Day-TiO2 (natural daylight, 2% TiO2, not pulsed), control of the 80 cps series
[15] = Day-TiO2 vs Dark-TiO2, 24 cps series
[16] = Day-TiO2 vs Dark-TiO2, 80 cps series

Ctrl (Table 7 (350 nm series)): 147.49
Ctrl-TiO2 (Table 7 (350 nm series)): 67.01
Ctrl (Table 8 (405 nm series)): 557.96
Ctrl-TiO2 (Table 8 (405 nm series)): 127.25
Compound: O=C1O[C@H]([C@@H](O)CO)C(O)=C1O [Compound 3, Ascorbic Acid]

Compound: C[C@@H]1[C@H](O)[C@@H](C)/C=C/C=C/C=C/C=C/C=C/C=C/C=C/[C@H](O[C@@H]2O[C@H](C)[C@@H](O)[C@H](N)[C@@H]2O)C[C@@H]2O[C@](O)(C[C@@H](O)C[C@@H](O)[C@H](O)CC[C@@H](O)C[C@@H](O)CC(=O)O[C@H]1C)C[C@H](O)[C@H]2C(=O)O [Compound 21, Amphotericin B]
% Permeation (percent increase or decrease vs dark baseline, equation 1) (350 + TiO2, 8 cps vs Dark-TiO2): 49.51%
% Permeation (percent increase or decrease vs dark baseline, equation 1) [1]: 71.32%
% Permeation (percent increase or decrease vs dark baseline, equation 1) [2]: 18.24%
Permeation (350 + TiO2, pulse rate 8 cps): 1.54 μg/cm^2/24 hrs
Permeation (350 + TiO2, pulse rate 24 cps): 2.33 μg/cm^2/24 hrs
Permeation (350 + TiO2, pulse rate 80 cps): 2.01 μg/cm^2/24 hrs
Permeation (350 nm LED, pulse rate 8 cps): 1.19 μg/cm^2/24 hrs
Permeation (350 nm LED, pulse rate 24 cps): 3.35 μg/cm^2/24 hrs
Permeation (350 nm LED, pulse rate 80 cps): 2.81 μg/cm^2/24 hrs
% Permeation (percent increase or decrease vs dark baseline, equation 1) (350 nm, 8 cps vs Dark): 60.81%
% Permeation (percent increase or decrease vs dark baseline, equation 1) (350 nm, 24 cps vs Dark): 66.67%
% Permeation (percent increase or decrease vs dark baseline, equation 1) (350 nm, 80 cps vs Dark): −11.36%
% Permeation (percent increase or decrease vs dark baseline, equation 1) (390 + TiO2, 8 cps vs Dark-TiO2): 91.26%
% Permeation (percent increase or decrease vs dark baseline, equation 1) [3]: 48.53%
% Permeation (percent increase or decrease vs dark baseline, equation 1) [4]: 241.18%
Permeation (390 + TiO2, pulse rate 8 cps): 1.97 μg/cm^2/24 hrs
Permeation (390 + TiO2, pulse rate 24 cps): 2.02 μg/cm^2/24 hrs
Permeation (390 + TiO2, pulse rate 80 cps): 5.80 μg/cm^2/24 hrs
Permeation (390 nm LED, pulse rate 8 cps): 1.11 μg/cm^2/24 hrs
Permeation (390 nm LED, pulse rate 24 cps): 1.88 μg/cm^2/24 hrs
Permeation (390 nm LED, pulse rate 80 cps): 3.94 μg/cm^2/24 hrs
% Permeation (percent increase or decrease vs dark baseline, equation 1) (390 nm, 8 cps vs Dark): 50.00%
% Permeation (percent increase or decrease vs dark baseline, equation 1) (390 nm, 24 cps vs Dark): −6.47%
% Permeation (percent increase or decrease vs dark baseline, equation 1) (390 nm, 80 cps vs Dark): 24.29%
% Permeation (percent increase or decrease vs dark baseline, equation 1) (405 + TiO2, 8 cps vs Dark-TiO2): 33.01%
% Permeation (percent increase or decrease vs dark baseline, equation 1) [5]: 817.65%
% Permeation (percent increase or decrease vs dark baseline, equation 1) [6]: 180.59%
Permeation (405 + TiO2, pulse rate 8 cps): 1.37 μg/cm^2/24 hrs
Permeation (405 + TiO2, pulse rate 24 cps): 12.48 μg/cm^2/24 hrs
Permeation (405 + TiO2, pulse rate 80 cps): 4.77 μg/cm^2/24 hrs
Permeation (405 nm LED, pulse rate 8 cps): 1.26 μg/cm^2/24 hrs
Permeation (405 nm LED, pulse rate 24 cps): 1.83 μg/cm^2/24 hrs
Permeation (405 nm LED, pulse rate 80 cps): 7.23 μg/cm^2/24 hrs
% Permeation (percent increase or decrease vs dark baseline, equation 1) (405 nm, 8 cps vs Dark): 70.27%
% Permeation (percent increase or decrease vs dark baseline, equation 1) (405 nm, 24 cps vs Dark): −8.96%
% Permeation (percent increase or decrease vs dark baseline, equation 1) (405 nm, 80 cps vs Dark): 129.65%
% Permeation (percent increase or decrease vs dark baseline, equation 1) (450 + TiO2, 8 cps vs Dark-TiO2): 110.68%
% Permeation (percent increase or decrease vs dark baseline, equation 1) [7]: 8.82%
% Permeation (percent increase or decrease vs dark baseline, equation 1) [8]: 198.82%
Permeation (450 + TiO2, pulse rate 8 cps): 2.17 μg/cm^2/24 hrs
Permeation (450 + TiO2, pulse rate 24 cps): 1.48 μg/cm^2/24 hrs
Permeation (450 + TiO2, pulse rate 80 cps): 5.08 μg/cm^2/24 hrs
Permeation (450 nm LED, pulse rate 8 cps): 0.80 μg/cm^2/24 hrs
Permeation (450 nm LED, pulse rate 24 cps): 1.19 μg/cm^2/24 hrs
Permeation (450 nm LED, pulse rate 80 cps): 9.26 μg/cm^2/24 hrs
% Permeation (percent increase or decrease vs dark baseline, equation 1) (450 nm, 8 cps vs Dark): 8.11%
% Permeation (percent increase or decrease vs dark baseline, equation 1) (450 nm, 24 cps vs Dark): −40.80%
% Permeation (percent increase or decrease vs dark baseline, equation 1) (450 nm, 80 cps vs Dark): 192.11%
Permeation (Dark control, 8 cps series): 0.74 μg/cm^2/24 hrs
Permeation (Dark control, 24 cps series): 2.01 μg/cm^2/24 hrs
Permeation (Dark control, 80 cps series): 3.17 μg/cm^2/24 hrs
Permeation (Dark-TiO2 control (2% TiO2), 8 cps series): 1.03 μg/cm^2/24 hrs
Permeation [9]: 1.36 μg/cm^2/24 hrs
Permeation [10]: 1.70 μg/cm^2/24 hrs
Permeation (Day (natural daylight, not pulsed), control of the 8 cps series): 0.84 μg/cm^2/24 hrs
Permeation [11]: 1.59 μg/cm^2/24 hrs
Permeation [12]: 2.52 μg/cm^2/24 hrs
% Permeation (percent increase or decrease vs dark baseline, equation 1) (Day vs Dark, 8 cps series): 13.51%
% Permeation (percent increase or decrease vs dark baseline, equation 1) (Day vs Dark, 24 cps series): −20.90%
% Permeation (percent increase or decrease vs dark baseline, equation 1) (Day vs Dark, 80 cps series): −20.50%
Permeation (Day-TiO2 (natural daylight, 2% TiO2, not pulsed), control of the 8 cps series): 0.70 μg/cm^2/24 hrs
Permeation [13]: 0.89 μg/cm^2/24 hrs
Permeation [14]: 4.09 μg/cm^2/24 hrs
% Permeation (percent increase or decrease vs dark baseline, equation 1) (Day-TiO2 vs Dark-TiO2, 8 cps series): −32.04%
% Permeation (percent increase or decrease vs dark baseline, equation 1) [15]: −34.56%
% Permeation (percent increase or decrease vs dark baseline, equation 1) [16]: 140.59%

Compound: CC(C)C[C@H](NC(=O)[C@H](Cc1ccccc1)NC(=O)CNC(=O)CNC(=O)[C@@H](N)Cc1ccc(O)cc1)C(=O)O [Compound 14, Leucine Enkephalin (Tyr-Gly-Gly-Phe-Leu)]
% Permeation (percent increase or decrease vs dark baseline, equation 1) [1]: 8.58%
% Permeation (percent increase or decrease vs dark baseline, equation 1) [2]: 39.43%
Permeation (350 + TiO2, pulse rate 24 cps): 73.17 μg/cm^2/24 hrs
Permeation (350 + TiO2, pulse rate 80 cps): 28.50 μg/cm^2/24 hrs
Permeation (350 nm LED, pulse rate 24 cps): 84.44 μg/cm^2/24 hrs
Permeation (350 nm LED, pulse rate 80 cps): 31.30 μg/cm^2/24 hrs
% Permeation (percent increase or decrease vs dark baseline, equation 1) (350 nm, 24 cps vs Dark): −21.59%
% Permeation (percent increase or decrease vs dark baseline, equation 1) (350 nm, 80 cps vs Dark): 72.36%
% Permeation (percent increase or decrease vs dark baseline, equation 1) [3]: 54.21%
% Permeation (percent increase or decrease vs dark baseline, equation 1) [4]: 55.14%
Permeation (390 + TiO2, pulse rate 24 cps): 103.92 μg/cm^2/24 hrs
Permeation (390 + TiO2, pulse rate 80 cps): 31.71 μg/cm^2/24 hrs
Permeation (390 nm LED, pulse rate 24 cps): 108.49 μg/cm^2/24 hrs
Permeation (390 nm LED, pulse rate 80 cps): 31.32 μg/cm^2/24 hrs
% Permeation (percent increase or decrease vs dark baseline, equation 1) (390 nm, 24 cps vs Dark): 0.74%
% Permeation (percent increase or decrease vs dark baseline, equation 1) (390 nm, 80 cps vs Dark): 72.47%
% Permeation (percent increase or decrease vs dark baseline, equation 1) [5]: 322.29%
% Permeation (percent increase or decrease vs dark baseline, equation 1) [6]: −35.47%
Permeation (405 + TiO2, pulse rate 24 cps): 284.58 μg/cm^2/24 hrs
Permeation (405 + TiO2, pulse rate 80 cps): 13.19 μg/cm^2/24 hrs
Permeation (405 nm LED, pulse rate 24 cps): 87.52 μg/cm^2/24 hrs
Permeation (405 nm LED, pulse rate 80 cps): 20.82 μg/cm^2/24 hrs
% Permeation (percent increase or decrease vs dark baseline, equation 1) (405 nm, 24 cps vs Dark): −18.73%
% Permeation (percent increase or decrease vs dark baseline, equation 1) (405 nm, 80 cps vs Dark): 14.65%
% Permeation (percent increase or decrease vs dark baseline, equation 1) [7]: 158.04%
% Permeation (percent increase or decrease vs dark baseline, equation 1) [8]: 45.45%
Permeation (450 + TiO2, pulse rate 24 cps): 173.89 μg/cm^2/24 hrs
Permeation (450 + TiO2, pulse rate 80 cps): 29.73 μg/cm^2/24 hrs
Permeation (450 nm LED, pulse rate 24 cps): 29.25 μg/cm^2/24 hrs
Permeation (450 nm LED, pulse rate 80 cps): 21.81 μg/cm^2/24 hrs
% Permeation (percent increase or decrease vs dark baseline, equation 1) (450 nm, 24 cps vs Dark): −72.84%
% Permeation (percent increase or decrease vs dark baseline, equation 1) (450 nm, 80 cps vs Dark): 20.10%
Permeation Dark (Dark control, ambient light absent): 41.68 μg/0.64 cm^2/25 hrs
Permeation (Dark control, 24 cps series): 107.69 μg/cm^2/24 hrs
Permeation (Dark control, 80 cps series): 18.16 μg/cm^2/24 hrs
Permeation [9]: 67.39 μg/cm^2/24 hrs
Permeation [10]: 20.44 μg/cm^2/24 hrs
Permeation [11]: 37.31 μg/cm^2/24 hrs
Permeation [12]: 20.89 μg/cm^2/24 hrs
% Permeation (percent increase or decrease vs dark baseline, equation 1) (Day vs Dark, 24 cps series): −65.35%
% Permeation (percent increase or decrease vs dark baseline, equation 1) (Day vs Dark, 80 cps series): 15.03%
Permeation [13]: 46.85 μg/cm^2/24 hrs
Permeation [14]: 18.64 μg/cm^2/24 hrs
% Permeation (percent increase or decrease vs dark baseline, equation 1) [15]: −30.48%
% Permeation (percent increase or decrease vs dark baseline, equation 1) [16]: −8.81%
405/1.7 (Table 10, 405 nm, 1.7 cps): 40.38
405/9.7 (Table 10, 405 nm, 9.7 cps): 1.23
405/24 (Table 10, 405 nm, 24 cps): 0.00
Ctrl (Table 10 peptides): 0.00
Permeation Ctrl (ambient cool fluorescent light only, 260-750 nm, 120 cps): 0.00 μg/0.64 cm^2/25 hrs
Permeation Ctrl-TiO2 (ambient fluorescent light, sample with 2% (w/w) rutile TiO2): 0.00 μg/0.64 cm^2/25 hrs
